In series [1] the target is T1, recombinant full-length HSET (Homo sapiens, UniProt Q9BW19).
T1 construct: 5 nM full-length human N-terminal His-tag HSET; His-tag (N)
T1 sequence (Q9BW19 1-673): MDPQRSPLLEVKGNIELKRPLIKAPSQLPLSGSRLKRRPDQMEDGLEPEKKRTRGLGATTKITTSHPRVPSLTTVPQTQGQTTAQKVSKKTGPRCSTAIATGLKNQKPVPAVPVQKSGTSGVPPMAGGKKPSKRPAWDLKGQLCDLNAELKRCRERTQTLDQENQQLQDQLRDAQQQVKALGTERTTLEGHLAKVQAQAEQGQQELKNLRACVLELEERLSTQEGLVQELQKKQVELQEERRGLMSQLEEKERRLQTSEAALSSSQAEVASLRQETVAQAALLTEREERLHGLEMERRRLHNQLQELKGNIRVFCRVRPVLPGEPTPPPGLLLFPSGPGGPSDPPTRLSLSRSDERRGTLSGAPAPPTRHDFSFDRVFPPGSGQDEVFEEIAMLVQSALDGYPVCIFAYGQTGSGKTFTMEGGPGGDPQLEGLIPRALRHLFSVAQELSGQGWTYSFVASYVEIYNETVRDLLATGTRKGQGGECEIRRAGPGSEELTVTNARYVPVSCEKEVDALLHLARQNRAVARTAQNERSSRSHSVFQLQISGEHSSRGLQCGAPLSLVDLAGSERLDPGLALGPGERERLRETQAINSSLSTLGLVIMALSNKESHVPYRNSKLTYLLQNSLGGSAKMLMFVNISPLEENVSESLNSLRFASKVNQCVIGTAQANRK
As to the kind of experiment: ADP-Glo HSET assay (3 μM ATP), microtubule-stimulated ATPase. Format: biochemical. The settings on record: preformed microtubules, 3 μM ATP; mean (±SD) n ≥ 3 (37 n = 2, 38 single determination) (Table 3); read-out: HSET ADP-Glo IC50. The protocol: The HSET or Eg5 ATPase activity was measured using the ADP-Glo Kinase Assay kit (Promega, V9102). The assays were run using final concentrations of 5 nM full-length human N-terminal His-tag HSET or 4 nM GST-tagged Eg5 motor domain protein (Cytoskeleton, EG01) and an assay buffer containing 20 mM HEPES pH 6.8, 10 mM MgCl2, 0.25 mM EGTA, 0.4 mM Triton X-100, and 1 mM DTT. Preformed microtubules (Universal Biologicals Cambridge, bovine MT001-XL, or porcine MT002-XL), which were reconstituted in 15 mM PIPES pH 7, 1 mM MgCl2, and 20 μM paclitaxel, were present at a final assay concentration of 70 μg/mL. A reaction volume of 5 μL was used in Proxiplate 384 plus white assay plates (PerkinElmer, 6008280). To measure compound inhibition, 100 nL of compound dissolved in DMSO or DMSO alone was preincubated with the HSET and microtubules for 10 min before 3 μM Ultra-Pure ATP was added to start the ATPase reaction for the 3 μM ATP HSET assay. For the 500 μM ATP HSET assay, the addition of 500 μM Ultra-Pure ATP was used. For the Eg5 ATPase assay, 4.8 μM Ultra-Pure ATP was used. All reactions were incubated at 25 °C for 80 min and then stopped by the addition of 5 μL of the ADP-Glo reagent. 10 μL of Kinase Detection Reagent was then added after a further 45 min of incubation. The luminescence was read after 45 min on a PheraStar FSX plate reader (BMG Labtech). The data processing was performed using Dotmatics Studies software package. Percentage inhibition was determined based on normalization to high controls (0% inhibition, all reagents with 100 nL of DMSO alone) and low controls (100% inhibition […], without HSET). The IC50 values for each compound were determined using a four-parameter logistic curve fit of % inhibition versus concentration.

Series [2] in a line: Kinetic aqueous solubility (KSol), HPLC-UV. The series is classed as physicochemical. The following applies: PBS buffer pH 7.4, 100 μM solution with 1% DMSO, HPLC with UV detection.
Another series has as its system DLD1 HSET KO cells. The experiment in a line: Click probe localization imaging in DLD1 HSET KO cells (negative control). Format: cell-based, human. The settings on record: HSET nonexpressing (DLD1 HSET KO) cells. The protocol: (§1) The Cy-5 tetrazine dye selected for this experiment is not cell-permeable, thus fixation and permeabilization of cells were necessary prior to its addition. Experiments were conducted in DLD1 4N cells and, as a negative control, isogenic 2N DLD1 HSET KO cells in which HSET expression was prevented by the disruption of the HSET gene using CRISPR. Cells were treated first with proTAME for 2 h to accumulate mitotic events, followed by treatment with the TCO probe 40 for 45 min. The live cells were then fixed and permeabilized before treatment with the tetrazine-Cy5 dye and incubation to allow the IEDDA reaction to occur. Additionally, the cells were stained for the endogenous HSET protein using indirect immunofluorescence and imaged to observe the fluorescence from both the TCO probe and antibody-labeled HSET. […] A 3 μM concentration of the probe 40 gave an acceptable signal-to-noise ratio of around 2:1. Even under these optimal conditions, some residual uniform cytoplasmic Cy5 signal was observed within the cells. However, a clear Cy5 decoration of the mitotic spindle was seen, which overlapped with the signal from the antibody-probed endogenous HSET protein (Figures 2A and S6). […] We observed a 14–17-fold increase in signal in DLD1 4N cells treated with 40 relative to tetrazine-Cy5 alone. […] Comparing the intensity of click probe labeling coincident with the mitotic spindle in DLD1 4N cells to that in DLD1 HSET KO cells after both were treated with 40, we observed a twofold higher signal in the former.
(§2) Direct target engagement of active inhibitor 36 was measured by calculating its capacity to displace the TCO-containing probe 40. 4N DLD1 cells and DLD1 HSET KO cells (negative control) were plated in 96-well ibidi μ-Clear plates (IB-89626, ibidi). Cells were first treated for 2 h with 8 μM pro-TAME (I-440–01M, R&D system) to accumulate mitotic cells and were then treated with 8 μM MG-132 (S2619, SelleckChem) and 3 μM 40, alone or together with active inhibitor 36 in DMEM media with 1% FBS for 45 min. Cells were then washed three times in DMEM, with the second wash being incubated for 10 min to ensure the optimal reduction of unspecific compound binding. After an additional PBS wash, cells were then fixed in 4% PFA/PBS (15670799, Thermo Scientific) prior to incubation with 400 nM tetraszine-Cy5 (CLK-015-05, Jena Biosciences) in 1.5% FBS/PBS for 10 min at room temperature. Cells were permeabilized by the addition of 0.5% TritonX-100/PBS for 5 min before being stained overnight for Pericentrin (1:1500 ab28144 mouse anti-PCNT, Abcam) and KIFC1 (1:1500 12313S rabbit anti-KIFC1, Cell Signaling Technologies). Secondary antibodies Alexa Fluor 488 donkey antirabbit and Alexa Fluor 555 donkey antimouse (1:1500, A21206 and A31570, respectively, Life Technologies) were added together with 1 μg/mL DAPI (D9542, Sigma) in 1.5% FBS in PBS.
(§3) Plates were imaged at 40× using a Zeiss LSM980 confocal microscope with Airyscan 2. The subsequent analysis and quantification were performed using 3D image segmentation with the Arivis4D software. Mitotic cells were segmented by selecting for the highest density (integrated DAPI intensity/total volume), and the mitotic pole areas were segmented using the Pericentrin signal. The signal of the click probe (Cy5) and total KIFC1 (FITC) was measured on the mitotic pole area, and both were normalized to the control condition containing 40 probe alone. The ratio of probe per target (click probe pole integrated intensity signal/KIFC1 pole integrated intensity signal) was used to calculate the occupancy of the probe in the target protein and normalized to the control condition containing 40 probe alone (n > 100 for each replicate, two replicates per concentration point).

The target in the next series is T2, HSET in DLD1 4N cells (Homo sapiens, UniProt Q9BW19).
T2 construct: overlapped with the signal from the antibody-probed endogenous HSET protein; endogenous in cells; host or cells: DLD1 4N cells
T2 sequence (Q9BW19 1-673): T1 sequence (Q9BW19 1-673)
The experiment in a line: Click probe localization target engagement imaging in DLD1 4N cells. The series is classed as cell-based. The settings on record: DLD1 4N cells treated with 40. The protocol: as §1, §2, §3

In general, IC50 refers to the concentration that gives 50% inhibition. With `CCCOC(=O)c1sc(NC(=O)C[C@@H](CCCNC)NC(=O)c2cccc(-c3noc(C)n3)c2)nc1C` [Compound 34, Propyl (R)-4-Methyl-2-(3-(3-(5-methyl-1,2,4-oxadiazol-3-yl)benzamido)-6-(methylamino)hexanamido)thiazole-5-carboxylate], the IC50 in series [1] amounted to 260 nM. Moreover, the KSol data in series [2] was over 90 µM.
In the same order, the values of `CCCOC(=O)c1sc(NC(=O)C[C@H](CCCN(C)CCOCCOCCNC(=O)O[C@@H]2CC/C=C/CCC2)NC(=O)c2cccc(-c3noc(C)n3)c2)nc1C` [Compound 39, Propyl 2-((S)-1-(((S,E)-Cyclooct-4-en-1-yl)oxy)-11-methyl-15-(3-(5-methyl-1,2,4-oxadiazol-3-yl)benzamido)-1-oxo-5,8-dioxa-2,11-diazaheptadecan-17-amido)-4-methylthiazole-5-carboxylate] are 107 nM and 53 µM.
Taken in the same sequence, the figures for `CCCOC(=O)c1sc(NC(=O)C[C@H](CCCN)NC(=O)c2cccc(-c3noc(C)n3)c2)nc1C` [Compound 33, Propyl (S)-2-(6-Amino-3-(3-(5-methyl-1,2,4-oxadiazol-3-yl)benzamido)hexanamido)-4-methylthiazole-5-carboxylate] were 13 nM and over 90 µM.
As for `CCCOC(=O)c1sc(NC(=O)C[C@H](CCCN(C)CC#CCNC(=O)O[C@@H]2CC/C=C/CCC2)NC(=O)c2cccc(-c3noc(C)n3)c2)nc1C` [Compound 40, propyl 2-((S)-6-((4-(((((S,E)-Cyclooct-4-en-1-yl)oxy)carbonyl)amino)but-2-yn-1-yl)(methyl)amino)-3-(3-(5-methyl-1,2,4-oxadiazol-3-yl)benzamido)hexanamido)-4-methylthiazole-5-carboxylate], the figures for the “fold increase in signal relative to tetrazine-Cy5 alone” value in the series with DLD1 HSET KO cells and on HSET in DLD1 4N cells were 7–8 fold and 14–17 fold, respectively. Further, the IC50 in series [1] was determined as 39 nM. The KSol data in series [2] came out at 1.1 µM.

The values are drawn from PMC9969401, “Discovery of 2-(3-Benzamidopropanamido)thiazole-5-carboxylate Inhibitors of the Kinesin HSET (KIFC1) and the Development of Cellular Target Engagement Probes” (Journal of Medicinal Chemistry, 2023).
